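Each compound was tested at five concentrations against cells in 96-well plates for 48 hours. GI50 is the concentration that inhibits growth by half. TGI: total growth inhibition.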
Assays:
Experiment in all cases: NCI-60 cell line screen, 48 h
U251 CNS = system: U251 CNS
HCT-116 colon = system: HCT-116 colon
NCI-H23 lung = system: NCI-H23 lung
COLO 205 colon = system: COLO 205 colon
HCC-2998 colon = system: HCC-2998 colon
SW-620 colon = system: SW-620 colon
SK-MEL-2 melanoma = system: SK-MEL-2 melanoma
RXF 393 renal = system: RXF 393 renal
SK-MEL-5 melanoma = system: SK-MEL-5 melanoma
MDA-MB-231 breast = system: MDA-MB-231 breast

## Cc1nc(C(N)=O)c(N)n1CCN1CCN(C(=O)CCCCCCCCCCNC2N=CNc3nc[nH]c32)CC1 (stereo not drawn)
U251 CNS
  TGI: > 100 µM
HCT-116 colon
  TGI: > 100 µM
NCI-H23 lung
  TGI: > 100 µM
COLO 205 colon
  TGI: > 100 µM
HCC-2998 colon
  TGI: > 100 µM
SW-620 colon
  TGI: > 100 µM
SK-MEL-2 melanoma
  TGI: 44.5 µM

## Cc1cc2c(C)nn(Cc3ccccc3)c2c(C(=O)O)c1C
RXF 393 renal
  TGI: > 100 µM
U251 CNS
  TGI: > 100 µM
HCT-116 colon
  TGI: > 100 µM
NCI-H23 lung
  TGI: > 100 µM
COLO 205 colon
  TGI: > 100 µM
HCC-2998 colon
  TGI: > 100 µM
SW-620 colon
  TGI: > 100 µM
SK-MEL-2 melanoma
  TGI: > 100 µM

## C[N+](C)(C)CCC(=O)CC[N+](C)(C)C
RXF 393 renal
  TGI: 36 µM
U251 CNS
  TGI: > 100 µM
HCT-116 colon
  TGI: 33.7 µM
NCI-H23 lung
  TGI: 55.9 µM
COLO 205 colon
  TGI: 31.8 µM
HCC-2998 colon
  TGI: 53.9 µM
SW-620 colon
  TGI: 35.4 µM
SK-MEL-2 melanoma
  TGI: 66.1 µM
SK-MEL-5 melanoma
  TGI: > 100 µM

## O=C1C[C@H]2CCCN2[C@@H](c2ccccc2)C1
RXF 393 renal
  TGI: > 100 µM
U251 CNS
  TGI: > 100 µM
HCT-116 colon
  TGI: > 100 µM
NCI-H23 lung
  TGI: > 100 µM
COLO 205 colon
  TGI: > 100 µM
HCC-2998 colon
  TGI: > 100 µM
SW-620 colon
  TGI: > 100 µM
SK-MEL-2 melanoma
  TGI: > 100 µM
SK-MEL-5 melanoma
  TGI: > 100 µM

## CNC(=S)Nc1ccc(OC)c2ccccc12
U251 CNS
  TGI: > 10 µM
HCT-116 colon
  TGI: > 10 µM
NCI-H23 lung
  TGI: > 10 µM
COLO 205 colon
  TGI: > 10 µM
HCC-2998 colon
  TGI: > 10 µM
SW-620 colon
  TGI: > 10 µM
SK-MEL-5 melanoma
  TGI: > 10 µM
MDA-MB-231 breast
  TGI: > 10 µM

## O=c1cc(-c2cccs2)[nH]c2cc3c(cc12)OCO3
RXF 393 renal
  TGI: 8.38 µM
U251 CNS
  TGI: > 60.2 µM
HCT-116 colon
  TGI: > 100 µM
NCI-H23 lung
  TGI: > 100 µM
COLO 205 colon
  TGI: > 100 µM
HCC-2998 colon
  TGI: > 51.6 µM
SW-620 colon
  TGI: > 100 µM
SK-MEL-2 melanoma
  TGI: > 48 µM
SK-MEL-5 melanoma
  TGI: > 31.9 µM

## CCc1cccc(C)c1NS(=O)(=O)c1ccccc1
RXF 393 renal
  TGI: > 100 µM
U251 CNS
  TGI: > 100 µM
HCT-116 colon
  TGI: > 100 µM
NCI-H23 lung
  TGI: > 100 µM
HCC-2998 colon
  TGI: > 100 µM
SW-620 colon
  TGI: > 100 µM
SK-MEL-2 melanoma
  TGI: > 100 µM
SK-MEL-5 melanoma
  TGI: > 100 µM

## O=S(=O)(/N=c1\scc(-c2ccccc2)n1-c1ccccc1)c1ccc(N2N=C3c4ccccc4CC3C2c2ccc(Cl)cc2)cc1 (stereo not drawn)
RXF 393 renal
  GI50: 42 µM
  TGI: > 100 µM
U251 CNS
  GI50: 26.1 µM
  TGI: 75.5 µM
HCT-116 colon
  GI50: 47.5 µM
  TGI: > 100 µM
NCI-H23 lung
  GI50: 21 µM
  TGI: 51.3 µM
COLO 205 colon
  GI50: 23.6 µM
  TGI: 54.9 µM
SW-620 colon
  GI50: 35 µM
  TGI: > 100 µM
SK-MEL-2 melanoma
  GI50: 36 µM
  TGI: > 100 µM
SK-MEL-5 melanoma
  GI50: 25.2 µM
  TGI: 75 µM
MDA-MB-231 breast
  GI50: 70 µM
  TGI: > 100 µM

## Cn1c(=O)c(N=Nc2c(=O)n(C)c(=O)n3c2[nH]c2ccccc23)c2[nH]c3ccccc3n2c1=O
RXF 393 renal
  TGI: > 100 µM
U251 CNS
  TGI: > 100 µM
HCT-116 colon
  TGI: > 100 µM
NCI-H23 lung
  TGI: > 100 µM
COLO 205 colon
  TGI: > 100 µM
HCC-2998 colon
  TGI: > 100 µM
SW-620 colon
  TGI: > 100 µM
SK-MEL-2 melanoma
  TGI: > 100 µM
SK-MEL-5 melanoma
  TGI: > 100 µM

## CC(=O)c1c(O)c(C)c(O)c(Cc2c(O)c3c(c(C(=O)/C=C/c4ccccc4)c2O)OC(C)(C)C=C3)c1O
U251 CNS
  TGI: 14.5 µM
HCT-116 colon
  TGI: 10.2 µM
NCI-H23 lung
  TGI: 14 µM
COLO 205 colon
  TGI: 3.95 µM
HCC-2998 colon
  TGI: 11.1 µM
SW-620 colon
  TGI: 14.8 µM
SK-MEL-2 melanoma
  TGI: 4.09 µM
SK-MEL-5 melanoma
  TGI: 5.75 µM
MDA-MB-231 breast
  TGI: 6.86 µM

## N#CC(N)=Nc1ccccc1
U251 CNS
  TGI: > 100 µM
HCT-116 colon
  TGI: > 100 µM
NCI-H23 lung
  TGI: > 100 µM
COLO 205 colon
  TGI: > 100 µM
HCC-2998 colon
  TGI: > 100 µM
SW-620 colon
  TGI: > 100 µM
SK-MEL-2 melanoma
  TGI: > 100 µM
SK-MEL-5 melanoma
  TGI: > 100 µM

## Nc1ncnc2c1ncn2C1OC(CSCC(F)(F)F)C(O)C1O (stereo not drawn)
RXF 393 renal
  TGI: > 100 µM
U251 CNS
  TGI: > 100 µM
HCT-116 colon
  TGI: > 100 µM
NCI-H23 lung
  TGI: > 100 µM
COLO 205 colon
  TGI: > 100 µM
HCC-2998 colon
  TGI: > 100 µM
SW-620 colon
  TGI: > 100 µM
SK-MEL-2 melanoma
  TGI: > 100 µM
SK-MEL-5 melanoma
  TGI: > 100 µM

## O=C1C2C3C=C4c5ccccc5N(c5ccccc5)C4(C2C(=O)N1c1ccccc1)C1C(=O)N(c2ccccc2)C(=O)C31 (stereo not drawn)
U251 CNS
  TGI: > 100 µM
HCT-116 colon
  TGI: > 100 µM
NCI-H23 lung
  TGI: > 100 µM
COLO 205 colon
  TGI: > 100 µM
HCC-2998 colon
  TGI: > 100 µM
SW-620 colon
  TGI: > 100 µM
SK-MEL-2 melanoma
  TGI: > 100 µM

## O=c1ncccn1[C@@H]1O[C@H](CO)[C@H](O)C1O (stereo partly drawn)
RXF 393 renal
  TGI: > 100 µM
U251 CNS
  TGI: > 100 µM
HCT-116 colon
  TGI: > 100 µM
NCI-H23 lung
  TGI: > 100 µM
COLO 205 colon
  TGI: > 100 µM
HCC-2998 colon
  TGI: > 100 µM
SW-620 colon
  TGI: > 100 µM
SK-MEL-2 melanoma
  TGI: > 100 µM
SK-MEL-5 melanoma
  TGI: > 100 µM

## COc1ccc(C2=Nn3c(nnc3-c3cc(Cl)cc(Cl)c3Cl)SC2)cc1
U251 CNS
  GI50: 0.412 µM
  TGI: 24.7 µM
HCT-116 colon
  GI50: 0.393 µM
  TGI: > 100 µM
NCI-H23 lung
  GI50: 0.701 µM
  TGI: > 100 µM
COLO 205 colon
  GI50: 0.792 µM
  TGI: 7.15 µM
HCC-2998 colon
  GI50: 1.21 µM
  TGI: 5.41 µM
SW-620 colon
  GI50: 0.381 µM
  TGI: > 100 µM
SK-MEL-2 melanoma
  GI50: 1.21 µM
  TGI: > 55.7 µM
SK-MEL-5 melanoma
  GI50: 0.273 µM
MDA-MB-231 breast
  GI50: 0.81 µM
  TGI: 26.2 µM

## COC(=O)c1sc(C(=O)OC)c2c1CS(=O)C2
RXF 393 renal
  TGI: > 100 µM
U251 CNS
  TGI: > 100 µM
HCT-116 colon
  TGI: > 100 µM
NCI-H23 lung
  TGI: > 100 µM
COLO 205 colon
  TGI: > 100 µM
HCC-2998 colon
  TGI: > 100 µM
SW-620 colon
  TGI: > 100 µM
SK-MEL-2 melanoma
  TGI: > 100 µM
SK-MEL-5 melanoma
  TGI: > 100 µM

## COc1ccc2nccc(C3=CCC4CCN(C(=O)c5ccccc5)C3C4)c2c1 (stereo not drawn)
RXF 393 renal
  TGI: > 100 µM
U251 CNS
  TGI: > 100 µM
HCT-116 colon
  TGI: > 100 µM
NCI-H23 lung
  TGI: > 100 µM
COLO 205 colon
  TGI: > 100 µM
HCC-2998 colon
  TGI: > 100 µM
SW-620 colon
  TGI: > 100 µM
SK-MEL-2 melanoma
  TGI: > 100 µM
SK-MEL-5 melanoma
  TGI: > 100 µM

## COC(=O)C1=CO[C@@H](OC2CC(CO)C(O)C(O)C2O)[C@@H]2[C@@H](C)[C@@H](OC(=O)/C=C/c3ccccc3)[C@@H](O)[C@H]12 (stereo partly drawn) (tested in a mixture with another compound)
U251 CNS
  TGI: > 100 µM
HCT-116 colon
  TGI: > 100 µM
NCI-H23 lung
  TGI: > 100 µM
COLO 205 colon
  TGI: > 100 µM
HCC-2998 colon
  TGI: > 100 µM
SW-620 colon
  TGI: > 100 µM
SK-MEL-5 melanoma
  TGI: > 100 µM

## Cn1c(=O)nc2n(-c3ccc(O)cc3)c3ccccc3nc-2c1=O
U251 CNS
  TGI: > 100 µM
HCT-116 colon
  TGI: > 100 µM
NCI-H23 lung
  TGI: > 100 µM
COLO 205 colon
  TGI: > 100 µM
HCC-2998 colon
  TGI: > 100 µM
SW-620 colon
  TGI: > 100 µM
SK-MEL-2 melanoma
  TGI: > 100 µM
SK-MEL-5 melanoma
  TGI: > 100 µM

## c1ccc(NN(Cc2cnccn2)c2ccccc2)cc1
RXF 393 renal
  TGI: > 100 µM
U251 CNS
  TGI: > 100 µM
HCT-116 colon
  TGI: > 100 µM
NCI-H23 lung
  TGI: > 100 µM
COLO 205 colon
  TGI: > 100 µM
SW-620 colon
  TGI: > 100 µM
SK-MEL-2 melanoma
  TGI: > 100 µM
SK-MEL-5 melanoma
  TGI: > 100 µM
MDA-MB-231 breast
  TGI: > 100 µM

## CC1=C(C(=O)Nc2ccccc2C)C(c2ccc(Cl)cc2)C(C(=O)Nc2ccccc2C)=C(C)N1
RXF 393 renal
  TGI: > 100 µM
U251 CNS
  TGI: > 100 µM
HCT-116 colon
  TGI: > 100 µM
NCI-H23 lung
  TGI: > 100 µM
COLO 205 colon
  TGI: > 100 µM
HCC-2998 colon
  TGI: > 100 µM
SW-620 colon
  TGI: > 100 µM
SK-MEL-2 melanoma
  TGI: > 100 µM
SK-MEL-5 melanoma
  TGI: > 100 µM

## O=C(NCCCOC(=O)CCCCCCCCC(=O)OCCCNC(=O)NC(=O)c1c[nH]c(=O)[nH]c1=O)NC(=O)c1c[nH]c(=O)[nH]c1=O
U251 CNS
  TGI: > 100 µM
HCT-116 colon
  TGI: > 100 µM
NCI-H23 lung
  TGI: > 100 µM
COLO 205 colon
  TGI: > 100 µM
HCC-2998 colon
  TGI: > 100 µM
SW-620 colon
  TGI: > 100 µM
SK-MEL-2 melanoma
  TGI: > 100 µM
SK-MEL-5 melanoma
  TGI: > 100 µM

Source: PubChem BioAssay (NCI)
